Test results from US4511559A, “Biologically active polysaccharide concentrates and process for production of preparates containing such substances” (Kozponti Valto-es Hitelbank Rt. InnovacioAlap, priority 1982, dated 1985).
Read-outs that look alike come from different tables or passages of the source.

Key:
[1] = tested on: rat paw carrageenan oedema; assay: rat paw carrageenan oedema test (anti-inflammatory activity); format: in vivo; settings: for Anti-inflammatory activity %: table 4; for ED50: Rattus norvegicus, po, reference standard
From the text: (§1) The anti-inflammatory activity of the polysaccharide concentrates produced according to the invention was investigated on the rat paw carrageenan oedema test according to Winter et al. [Proc. Soc. Exp. Biol. Med. 111. 544. (1962)]. The concentrate has a significant specific activity and in connection with its advantageous anti-inflammatory activity it posseses a remarkably low toxicity.

[2] = in vivo; settings: rat, in vivo, po, LD50, p.o.
Procedure: (§2) The anti-inflammatory activity of the polysaccharide concentrate according to the invention was investigated intraperitoneally on rat according to the paw carrageenan oedema test. Simultaneously the LD50 values of the polysaccharide concentrates (i.p.) were determined.
(§3) The anti-inflammatory activity of the prepared polysaccharide concentrates was determined in comparison to the indomethancin as well using the rat paw carrageenan oedema test. The polysaccharide sample was intraperitoneally injected one hour before the inflammation inducing carrageenan. As reference standard per os applied indomethacin was used, which was suspended in 1% methylcellulose solution, and given through a gastric tube into the stomach one hour prior to the administration of Carrageenan to CFY rats and CFLP mice. The dosage was the same during the toxicity studies as well.
(§4) To develop the PG phase 5 hours are required from the injection of the inflammation inducing carrageenan.

[3] = tested on: rat; assay: in vivo; settings: table 4
Procedure: as §2, §3, §4

[4] = rat paw carrageenan oedema test (anti-inflammatory activity); format: in vivo; settings: rat, in vivo, po, read-out: Therapeutic index LD50/ED50
From the text: as §1

[5] = tested on: adjuvans arthritis in rat; assay: adjuvans arthritis in rat (chronic inflammation model); format: in vivo; settings: 50 mg/kg, intraperitoneal, 3 weeks
From the text: The polysaccharides produced according to the invention show significant effectivity on chronic inflammation models too, for example on adjuvans arthritis in rat, at intraperitoneal treatment for 3 weeks: […]

Structure (SMILES)	Anti-inflammatory activity % ([1]; 400 mg/kg p.o.)	LD50 ([2]; table 4)	Dose/LD50 ratio ([3]; dose 400 mg/kg p.o.)	Anti-inflammatory activity % ([1]; 10 mg/kg p.o.)	ED50 ([1]; 2 hours)	ED50 ([1]; 5 hours)	selectivity ratio ([4]; 2 hours)	selectivity ratio ([4]; 5 hours)	LD50 ([2]; table 2)	Dose/LD50 ratio ([3]; dose 10 mg/kg p.o.)	Anti-inflammatory activity % ([1]; 90 mg/kg p.o.)	inhibition ([1]; 100 mg/kg, standard)	Inhibiton ([1]; intraperitoneally, rat, 100 mg/kg)	Anti-inflammatory activity % [5]
CC(=O)Oc1ccccc1C(=O)O [Aspyrine]	36%	1200 mg/kg	0.330											
COc1ccc2c(c1)c(CC(=O)O)c(C)n2C(=O)c1ccc(Cl)cc1 [Indomethacin, indomethacin]		17 mg/kg		51%	3.14 mg/kg	2.2 mg/kg	10.2	14.5	32 mg/kg	0.580				
CCCCC1C(=O)N(c2ccccc2)N(c2ccccc2)C1=O [Phenylbutazone, phenylbutazone]											40%	45%	45.0%	64%
